Measurements as given in the supplement of paper PMC10331698.
± gives the standard deviation of the averaged measurements.

Assays:
Assay in all cases: level (log10 ratio to DMSO vehicle control); higher = higher biomarker level / cell amount than vehicle control
[1] = compound: C=C(C)C(=O)OCCC(F)(F)C(F)(F)C(F)(F)C(F)(F)C(F)(F)C(F)(F)F [6:2 Fluorotelomer methacrylate]; conditions: in DMSO
Experimental: (§1)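 BioMAP Diversity Plus panel of 12 human primary cell co-culture systems (3C, 4H, LPS, SAg, BT, BF4T, BE3C, CASM3C, HDF3CGF, KF3CT, MyoF, Mphg). Compounds were added 1 h before stimulation and left for 24 h (MyoF 48 h; BT 72 h for soluble read-outs or 6 d for IgG). Biomarkers were read by ELISA, cytotoxicity by SRB, PBMC viability and proliferation by Alamar Blue. Each well value was divided by the mean of 8 DMSO control wells on the same plate and log10 transformed; duplicate blinded samples were tested at 4 concentrations.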

[2] = compound: C=CC(=O)OCC(F)(F)C(F)(F)C(F)(F)COC(=O)C=C [1H,1H,5H,5H-Perfluoro-1,5-pentanediol diacrylate]; conditions: 6700 nM; in DMSO
Experimental: as §1

[3] = compound: FC(F)(F)C(F)(F)C(F)(F)C(F)(F)C(F)(F)C(F)(F)C(F)(F)I [1-Iodopentadecafluoroheptane]; conditions: in DMSO
Experimental: as §1

[4] = compound: FC(F)(F)C(F)(F)C(F)(F)CC1CO1 [1H,1H-Heptafluorobutyl epoxide]; conditions: in DMSO
Experimental: as §1

[5] = compound: NS(=O)(=O)C(F)(F)C(F)(F)C(F)(F)C(F)(F)C(F)(F)C(F)(F)F [Perfluorohexanesulfonamide]; conditions: in DMSO
Experimental: as §1

[6] = compound: O=S(=O)(O)CCC(F)(F)C(F)(F)C(F)(F)C(F)(F)C(F)(F)C(F)(F)F [6:2 Fluorotelomer sulfonic acid]; conditions: in DMSO
Experimental: as §1

| Test System | level (log10) ([1]; 6700 nM) | level (log10) ([1]; 20000 nM) | level (log10) ([1]; 60000 nM) | level (log10) [2] | level (log10) ([3]; 6700 nM) | level (log10) ([3]; 20000 nM) | level (log10) ([4]; 6700 nM) | level (log10) ([4]; 20000 nM) | level (log10) ([4]; 60000 nM) | level (log10) ([5]; 6700 nM) | level (log10) ([5]; 20000 nM) | level (log10) ([5]; 60000 nM) | level (log10) ([6]; 6700 nM) | level (log10) ([6]; 20000 nM) | level (log10) ([6]; 60000 nM) |
| --- | --- | --- | --- | --- | --- | --- | --- | --- | --- | --- | --- | --- | --- | --- | --- |
| LPS:M-CSF | 0.0215 ± 0.025 | 0.0305 ± 0.0064 | 0.0275 ± 0.028 | -0.0655 ± 0.026 | 0.023 ± 0.047 | 0.0155 ± 0.086 | -0.019 ± 0.02 | 0.0005 ± 0.036 | 0.0255 ± 0.053 | -0.022 ± 0.016 | -0.0155 ± 0.0021 | -0.081 ± 0.0057 | -0.0045 ± 0.015 | 0.004 ± 0.03 | 0.0485 ± 0.039 |
| LPS:SRB | -0.003 ± 0.0042 | -0.0035 ± 0.0064 | -0.0025 ± 0.00071 | -0.02 ± 0.0042 | 0.0035 ± 0.0064 | 0.003 ± 0.0042 | 0.0085 ± 0.013 | 0.002 | -0.005 ± 0.0071 | -0.012 ± 0.0071 | -0.017 ± 0.0057 | -0.0975 ± 0.029 | -0.0055 ± 0.00071 | -0.0005 ± 0.0064 | -0.001 ± 0.023 |
| LPS:sTNF-alpha | 0.031 ± 0.028 | 0.0415 ± 0.021 | 0.0405 ± 0.022 | -0.008 ± 0.0057 | 0.0115 ± 0.018 | 0.0025 ± 0.0092 | -0.003 ± 0.014 | -0.0055 ± 0.012 | -0.014 ± 0.0085 | -0.0515 ± 0.022 | -0.02 ± 0.041 | -0.0325 ± 0.079 | -0.002 ± 0.0042 | 0 ± 0.0057 | 0.0015 ± 0.0092 |
| MyoF:CD106/VCAM-1 | -0.005 ± 0.037 | -0.0005 ± 0.036 | -0.003 ± 0.0042 | -0.212 ± 0.015 | -0.091 ± 0.0057 | -0.448 ± 0.019 | -0.007 ± 0.013 | -0.007 ± 0.038 | -0.0205 ± 0.03 | -0.0105 ± 0.021 | -0.0165 ± 0.0021 | -0.0655 ± 0.0078 | -0.003 ± 0.0028 | -0.012 ± 0.0099 | -0.0095 ± 0.005 |
| MyoF:CXCL8/IL-8 | -0.0055 ± 0.021 | 0.051 ± 0.0057 | 0.041 ± 0.0085 | 0.003 ± 0.014 | 0.028 ± 0.018 | 0.034 ± 0.038 | -0.012 ± 0.0028 | 0.006 ± 0.0099 | -0.021 ± 0.0042 | 0.046 ± 0.068 | 0.024 ± 0.067 | 0.0085 ± 0.015 | 0.007 ± 0.031 | 0 ± 0.018 | 0.016 ± 0.021 |
| MyoF:Collagen I | -0.0085 ± 0.0092 | -0.0095 ± 0.00071 | -0.009 ± 0.0099 | -0.0165 ± 0.0035 | -0.0495 ± 0.0021 | -0.339 ± 0.012 | 0.013 ± 0.018 | -0.0025 ± 0.00071 | -0.0105 ± 0.012 | 0.024 ± 0.013 | 0.0515 ± 0.013 | 0.0495 ± 0.022 | 0.011 ± 0.025 | -0.022 ± 0.016 | 0 ± 0.0085 |
